We go through 21 molecules from patent publication US9556169B2, “Compounds and compositions for the treatment of parasitic diseases” (NOVARTIS AG, priority 2012, dated 2017).

The test system of assay [1] is Plasmodium yoelii (17XNL) sporozoites. In words: Liver stage P. yoelii sporozoite invasion assay in HepG2-A16-CD81EGFP cells. The format is cell-based. An excerpt:
Assay for Proliferation of Parasite in Infected Liver Cells
Compounds of the invention can be assayed to measure their capacity to inhibit proliferation of parasites in liver cells. The proliferation is quantified by determine the number of infected cells by immunofluorescence.
Due to the difficulty of successfully infecting immortalized human liver cell lines with the human malaria sporozoites (liver-stage parasite), rodent malaria sporozoites from Plasmodium yoelii (17XNL) and P. berghei (ANKA) are the preferred surrogate. Sporozoites are obtained from Anopheles stephensi mosquitoes supplied by the New York University Insectary, which ships the malaria-infected mosquitoes 10-13 days following the ingestion of an infective blood meal.
A transgenic HepG2 cell line expressing the tetraspanin CD81 receptor (HepG2-A16-CD81^EGFP) is used to increase the infectivity rate of rodent-malaria sporozoites into human cells. HepG2-A16-CD81^EGFP cells are stably transformed to express a GFP-CD81 fusion protein. A continuous in vitro culture of this line was maintained at 37° C. in 4% CO2 in complete media (CM) which contains: DMEM (Invitrogen, Carlsbad, USA) supplemented with 10% FCS, 0.29 mg/ml glutamine, 100 units penicillin and 100 μg/ml streptomycin (SigmaAldrich, USA).
Liver Stage P. yoelii Sporozoite Invasion Assay
Twenty to twenty-six hours prior to sporozoite infection, 7.5×10^3 HepG2-A16-CD81^EGFP cells are seeded into 384-well plates (Aurora 384 IQ-EB black plates with clear bottoms; 50 μl of 1.5×10^5 cells/ml in CM). These plates are incubated at 37° C. with 4% CO2 overnight. Two hours prior to infection, 50 nl of compound dissolved in DMSO (0.1% final DMSO concentration per well) were transferred with a PinTool (GNF Systems) into the assay plates (10 μM final concentration). A 1:3 serial dilution of atovaquone (10 μM at the highest final concentration) and wells treated only with DMSO were used as positive and negative controls, respectively.
Freshly dissected salivary glands from infected mosquitoes were homogenized in a glass tissue grinder, filtered twice through Nylon cell strainers (40 μm pore size, BD Falcon) and counted using a hemocytometer. The assay plate with HepG2-A16-CD81^EGFP cells and compound were then infected with 8×10^3 sporozoitesper well and the plates are subjected to a centrifugal force of 650×g to pellet the sporozoites onto the liver cell monolayer. The assay plate is incubated at 37° C. for 2 hours to permit sporozoite invasion, then the media is aspirated from the media plate, and replaced with 50 μl CM (containing a 5× concentration of penicillin/streptomycin; 500 units penicillin and 0.5 mg streptomycin per ml) per well. 50 nl of compound is re-introduced by PinTool and the assay plate incubated for 48 hours at 37° C. before quantification of infected cells by immunofluorescence.
Atovaquone and uninfected wells were used as controls on each plate. Two replicate plates are tested for each assay.
After fixing the cells by addition of 12.5 μl of 20% solution of paraformaldehyde (EMS, Hatfield, USA) to each assay well (4% final formaldehyde concentration), membranes were permeabilized with 0.5% Triton-X-100 (Thermo Fisher Scientific) and EEFs were stained using a mouse polyclonal serum raised against the Plasmodium yoelii heat shock protein 70 (PyHSP70), a DyLight 649 goat anti-mouse IgG, Fc(gamma) fragment specific secondary antibody (Jackson Immuno Research, Cat#115-495-071) and the Hoechst 33342 nucleic acid dye (Invitrogen, Carlsbad, USA). Stained EEFs were then quantified using the Opera Confocal High Content Screening System (Perkin Elmer, Waltham, USA). Images were collected using a 20× objective lens (20×/0.45 NA, LWD Plan Fluor, Olympus) at a binning of 2, using a 365 nm Xeon arc lamp illumination to detect the Hoechst-labeled nuclei and 635 nm laser line to excite DyLight649-labeled parasites. The image resolution yielded was approximately 0.66 μm/pixel (˜0.43 μm 2/pixel). […]

Assay [2] deals with P. falciparum (NF54 or 3D7 strain). In words: P. falciparum proliferation assay in infected human blood cells (SYBR Green). Particulars: Plasmodium falciparum. The format is cell-based. In short, it runs like this:
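Asexual NF54 or 3D7 parasites in O+ human erythrocytes (final 2.5% hematocrit, 0.3% parasitemia) exposed to compound for 72 h at 37 °C under 93% N2/4% CO2/3% O2. Lysis with SYBR Green I overnight at rt; fluorescence (ex 425/em 530 nm) tracks parasite DNA, giving EC50.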

[3] abbreviates: read-out: EC50, P. yoelii Sporozoite Invasion Assay.
[4] abbreviates: read-out: EC50, P. falciparum Proliferation Assay.
[5] abbreviates: values without * in Table 2, HepG2-A16-CD81EGFP liver cells, 48 hours, immunofluorescence, read-out: EC50 (nM), P. yoelii Sporozoite Invasion Assay.
[6] abbreviates: Erythrocyte, infected human erythrocytes, 72 hours, SYBR Green fluorescence, read-out: EC50 (nM), inhibitory efficacy in delaying P. falciparum proliferation in infected human blood cells.

Where two headings read alike, the source gives them in different places.

Regarding `CN(C(=O)c1ccn2ncc(-c3ccc(C(N)=O)cc3)c2c1)c1ccc(C#N)cn1` [Example 32, 3-(4-carbamoylphenyl)-N-(5-cyanopyridin-2-yl)-N-methylpyrazolo[1,5-a]pyridine-5-carboxamide], the EC50 in assay [1] (setting [3]) is less than 10 nM; in assay [2] (setting [4]), less than 5 nM.
With `CN(C(=O)c1ccn2ncc(-c3ccc(C(=O)NC4CCNCC4)cc3)c2c1)c1ccc(C#N)cn1` [Example 113, N-(5-Cyanopyridin-2-yl)-N-methyl-3-(4-(piperidin-4-ylcarbamoyl)phenyl)pyrazolo[1,5-a]pyridine-5-carboxamide], the EC50 in assay [1] (setting [5]) was found to be 1650 nM; in assay [2] (setting [6]), 311 nM.
Take `CN(C)CCNC(=O)c1ccc(-c2cnn3ccc(C(=O)N(C)c4ccc(C#N)cn4)cc23)cc1` [Example 115, N-(5-cyanopyridin-2-yl)-3-(4-((2-(dimethylamino)ethyl)carbamoyl)phenyl)-N-methylpyrazolo[1,5-a]pyridine-5-carboxamide]: the EC50 in assay [1] (setting [5]) was determined as 79 nM; in assay [2] (setting [6]), 155 nM.
Turning to `CNC(=O)c1ccc(-c2cnn3ccc(C(=O)N(c4ccc(Cl)cc4)C4CC4)cc23)cc1` [Example 116, N-(4-Chlorophenyl)-N-cyclopropyl-3-(4-(methylcarbamoyl)phenyl)pyrazolo[1,5-a]pyridine-5-carboxamide], the EC50 was found to be 3 nM in assay [1] (setting [5]) and 1 nM in assay [2] (setting [6]).
Turning to `CCN(C(=O)c1ccn2ncc(-c3ccc(S(=O)(=O)NC)cc3)c2c1)c1ccc(C#N)cn1` [Example 140, N-(5-cyanopyridin-2-yl)-N-ethyl-3-(4-[N-methylsulfamoyl]phenyl)pyrazolo[1,5-a]pyridine-5-carboxamide], the results for the EC50 in assay [1] (setting [5]) and in assay [2] (setting [6]) were 84 nM and 199 nM, respectively.
Turning to `CN(C(=O)c1ccn2ncc(-c3cnc(Cl)c(N)c3)c2c1)c1ccc(C#N)cn1` [Example 98, 3-(5-Amino-6-chloropyridin-3-yl)-N-(5-cyanopyridin-2-yl)-N-methylpyrazolo[1,5-a]pyridine-5-carboxamide], the EC50 was found to be 2060 nM in assay [1] (setting [5]) and 19 nM in assay [2] (setting [6]).
Take `CNC(=O)c1ccc(-c2cnn3ccc(C(=O)N(C)c4ccc(C#N)cn4)cc23)cc1` [Example 75, N-(5-cyanopyridin-2-yl)-N-methyl-3-(4-(methylcarbamoyl)phenyl)pyrazolo[1,5-a]pyridine-5-carboxamide]: the results for the EC50 in assay [1] (setting [3]) and in assay [2] (setting [4]) were less than 10 nM and less than 5 nM, respectively.
Turning to `CN(C(=O)c1ccn2ncc(-c3cnc(Cl)c(NS(C)(=O)=O)c3)c2c1)c1ccc(C#N)cn1` [Example 107, 3-(6-Chloro-5-(methylsulfonamido)pyridin-3-yl)-N-(5-cyanopyridin-2-yl)-N-methylpyrazolo[1,5-a]pyridine-5-carboxamide], the EC50 in assay [1] (setting [5]) was found to be 180 nM; in assay [2] (setting [6]), 10 nM.
On to `CNC(=O)c1ccc(-c2cnn3ccc(C(=O)N(CCO)c4ccc(C#N)cc4)cc23)cc1` [Example 110, N-(4-Cyanophenyl)-N-(2-hydroxyethyl)-3-(4-(methylcarbamoyl)phenyl)pyrazolo[1,5-a]pyridine-5-carboxamide], for which the EC50 amounted to 253 nM in assay [1] (setting [5]) and 54 nM in assay [2] (setting [6]).
Take `CNC(=O)c1ccc(-c2cnn3ccc(C(=O)N(C)c4ccc(OCCN)cn4)cc23)cc1` [Example 111, N-(5-(2-Aminoethoxyl)pyridin-2-yl)-N-methyl-3-(4-(methylcarbamoyl)phenyl)pyrazolo[1,5-a]pyridine-5-carboxamide]: the EC50 in assay [1] (setting [5]) is greater than 10000 nM; in assay [2] (setting [6]), 6300 nM.
In the case of `CCN(C(=O)c1ccn2ncc(-c3ccc(C(=O)NC)cc3)c2c1)c1ccc(C#N)cn1` [Example 90, N-(5-Cyanopyridin-2-yl)-N-ethyl-3-(4-(methylcarbamoyl)phenyl)pyrazolo[1,5-a]pyridine-5-carboxamide], the results for the EC50 in assay [1] (setting [5]) and in assay [2] (setting [6]) were 39 nM and 8 nM, respectively.
Turning to `CNC(=O)c1ccc(-c2cnn3ccc(C(=O)N(c4ccc(C#N)cn4)C(C)C)cc23)cc1` [Example 91, N-(5-cyanopyridin-2-yl)-N-isopropyl-3-(4-(methylcarbamoyl)phenyl)pyrazolo[1,5-a]pyridine-5-carboxamide], the results for the EC50 in assay [1] (setting [5]) and in assay [2] (setting [6]) were 23 nM and 13 nM, respectively.
Take `CNC(=O)c1ccc(-c2cnn3ccc(C(=O)N(c4ccc(C#N)cn4)C4CCC4)cc23)cc1` [Example 112, N-(5-Cyanopyridin-2-yl)-N-cyclobutyl-3-(4-(methylcarbamoyl)phenyl)pyrazolo[1,5-a]pyridine-5-carboxamide]: the figures for the EC50 in assay [1] (setting [5]) and in assay [2] (setting [6]) were 9 nM and 4 nM, respectively.
Take `CNC(=O)c1ccc(-c2cnn3ccc(C(=O)N(C)c4ccc(Cl)cc4)cc23)cn1` [Example 109, N-(4-Chlorophenyl)-N-methyl-3-(6-(methylcarbamoyl)pyridin-3-yl)pyrazolo[1,5-a]pyridine-5-carboxamide]: the EC50 worked out at 62 nM in assay [1] (setting [5]) and 19 nM in assay [2] (setting [6]).
In the case of `CN(C(=O)c1ccn2ncc(-c3ccc(C(=O)NCCO)cc3)c2c1)c1ccc(C#N)cn1` [Example 102, N-(5-Cyanopyridin-2-yl)-3-(4-((2-hydroxyethyl)carbamoyl)phenyl)-N-methylpyrazolo[1,5-a]pyridine-5-carboxamide], the figures for the EC50 in assay [1] (setting [5]) and in assay [2] (setting [6]) were 660 nM and 10 nM, respectively.
Regarding `CNC(=O)c1ccc(-c2cnn3ccc(C(=O)N(c4ccc(C#N)cn4)C(C)(C)C)cc23)cc1` [Example 119, N-(tert-Butyl)-N-(5-cyanopyridin-2-yl)-3-(4-(methylcarbamoyl)phenyl)pyrazolo[1,5-a]pyridine-5-carboxamide], the EC50 in assay [1] (setting [5]) amounted to 56 nM; in assay [2] (setting [6]), 95 nM.
For `CN(C(=O)c1ccn2ncc(-c3ccc(C(N)=O)cc3)c2c1)c1ccc(Cl)cc1` [Example 100, 3-(4-Carbamoylphenyl)-N-(4-chlorophenyl)-N-methylpyrazolo[1,5-a]pyridine-5-carboxamide] the same measures were 20 nM and 9 nM.
As for `CN(C(=O)c1ccn2ncc(-c3ccnc(N)c3)c2c1)c1ccc(C#N)cn1` [Example 108, 3-(2-Aminopyridin-4-yl)-N-(5-cyanopyridin-2-yl)-N-methylpyrazolo[1,5-a]pyridine-5-carboxamide], the EC50 in assay [1] (setting [5]) amounted to 472 nM; in assay [2] (setting [6]) it was 2470 nM.
On to `CN(C(=O)c1ccn2ncc(-c3ccc(C(F)(F)F)cc3)c2c1)c1ccc(C#N)cc1` [Example 1, N-(4-cyanophenyl)-N-methyl-3-(4-(trifluoromethyl)phenyl)pyrazolo[1,5-a]pyridine-5-carboxamide], for which, in assay [1] (setting [3]), the EC50 is less than 10 nM.
As to `CNC(=O)c1ccc(-c2cnn3ccc(C(=O)N(c4ccc(C#N)cc4)C4CC4)cc23)cc1` [Example 118, N-(4-Cyanophenyl)-N-cyclopropyl-3-(4-(methylcarbamoyl)phenyl)pyrazolo[1,5-a]pyridine-5-carboxamide], the figures for the EC50 in assay [1] (setting [5]) and in assay [2] (setting [6]) were 1 nM and 3 nM, respectively.
In the case of `CN(C(=O)c1ccn2ncc(-c3ccc(C(N)=O)cc3)c2c1)c1ccc(C#N)cc1` [Example 19, 3-(4-carbamoylphenyl)-N-(4-cyanophenyl)-N-methylpyrazolo[1,5-a]pyridine-5-carboxamide], in assay [1] (setting [3]), the EC50 is less than 10 nM.
